For one experiment, the target named is MAPK14 (human) (UniProt Q16539). Put plainly: p38 Enzyme Inhibition Assay.
The target in experiment [1] is MAPK14 (human), Q16539 [p38(A157V) Mutant Enzyme Inhibition Assay]. Put plainly: p38(A157V) Mutant Enzyme Inhibition Assay.
Experiment [2] addresses MAPK14 (human), Q16539 [p38(M109A) Mutant Enzyme Inhibition Assay]. Put plainly: p38(M109A) Mutant Enzyme Inhibition Assay.

Where only a bound is given, the exact number is not on record here.

Chain of MAPK14 (human), Q16539 [p38(A157V) Mutant Enzyme Inhibition Assay] (Q16539 whole entry, looked up, stated change not applied): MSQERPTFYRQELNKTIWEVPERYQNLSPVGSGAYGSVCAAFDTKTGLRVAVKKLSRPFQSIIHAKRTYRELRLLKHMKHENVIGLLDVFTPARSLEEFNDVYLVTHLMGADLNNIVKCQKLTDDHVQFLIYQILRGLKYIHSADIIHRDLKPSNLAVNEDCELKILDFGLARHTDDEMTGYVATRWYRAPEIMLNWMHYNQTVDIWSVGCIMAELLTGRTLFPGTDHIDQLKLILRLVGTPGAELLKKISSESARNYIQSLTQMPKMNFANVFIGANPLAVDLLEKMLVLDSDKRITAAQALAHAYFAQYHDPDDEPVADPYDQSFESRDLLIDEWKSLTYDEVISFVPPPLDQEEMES
Chain of MAPK14 (human), Q16539 [p38(M109A) Mutant Enzyme Inhibition Assay] (Q16539 whole entry, looked up, stated change not applied): as above
Chain of MAPK14 (human) (Q16539 whole entry, looked up): as the sequence (Q16539 whole entry, looked up, stated change not applied) above

The IC50 is the concentration that gives 50% inhibition. Lower therefore signals inhibition by little substance. As for `C[C@H](Nc1cc(-c2nc(C3CCCNC3)n(C)c2-c2cccc(C(F)(F)F)c2)ccn1)c1ccccc1` (some centres not stated), the results for the IC50 (on MAPK14 (human); in experiment [1]; in experiment [2]) were 0.094 µM, 0.013 µM and 0.712 µM, respectively.
The matching figures for `C[S+]([O-])c1ccc(-c2cc(-c3ccc(F)c(F)c3)c(-c3ccncc3)[nH]2)cc1` (configuration not stated): 0.012 µM, 0.45 µM and 0.037 µM.
Consider `Cn1c(C2CCNCC2)nc(-c2cccc(C(F)(F)F)c2)c1-c1ccncc1`, for which the IC50 is 0.007 µM at MAPK14 (human), less than 0.0005 µM in experiment [1] and 0.046 µM in experiment [2].
Regarding `C[S+]([O-])c1ccc(-c2cc(-c3ccc(F)cc3)c(-c3ccncc3)[nH]2)cc1` (configuration not stated), the half-inhibitory concentration (IC50) against MAPK14 (human) came to 0.004 µM; in experiment [1] it was 0.058 µM; in experiment [2] it was 0.0075 µM.

The values are drawn from the Kinase Knowledgebase extract (Sharma et al. 2016).
